By Ki is commonly meant a measure of affinity in units of concentration, obtained from inhibition or displacement. Lower therefore signals tighter binding.

Six molecules from ChEMBL document CHEMBL1130882, “C-alkylated spiro[benzofuran-3(2H),4'-1'-methyl-piperidine-7-ols] as potent opioids: a conformation-activity study” (Bioorg Med Chem Lett, 1998) can be followed below.

One assay deals with Mu-type opioid receptor (Cavia porcellus, UniProt P97266). Nature of the assay: Binding affinity against mu opioid receptor was determined in brain membrane preparations from male Hartley guinea-pigs. The format is cell membranes.
Mu-type opioid receptor, sequence (P97266 whole entry): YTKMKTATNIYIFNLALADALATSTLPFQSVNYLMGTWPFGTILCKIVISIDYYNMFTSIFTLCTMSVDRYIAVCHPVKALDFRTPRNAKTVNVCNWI
Assay [1] addresses Kappa-type opioid receptor (Cavia porcellus, UniProt P41144). Nature of the assay: Binding affinity against Opioid receptor kappa 1 was determined in brain membrane preparations from male Hartley guinea-pigs. The format is cell membranes.

Kappa-type opioid receptor, sequence (P41144 whole entry): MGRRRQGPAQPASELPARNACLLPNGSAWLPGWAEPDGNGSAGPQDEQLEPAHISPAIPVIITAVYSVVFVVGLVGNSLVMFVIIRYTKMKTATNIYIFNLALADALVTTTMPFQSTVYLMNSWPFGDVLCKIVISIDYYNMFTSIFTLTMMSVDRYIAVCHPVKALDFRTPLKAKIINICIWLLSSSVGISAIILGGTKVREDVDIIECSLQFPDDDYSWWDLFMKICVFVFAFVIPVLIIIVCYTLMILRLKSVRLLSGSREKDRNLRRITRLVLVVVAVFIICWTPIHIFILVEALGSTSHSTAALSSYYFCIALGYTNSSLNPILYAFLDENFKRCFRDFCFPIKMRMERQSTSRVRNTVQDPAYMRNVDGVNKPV

`CN1CCC2(CC1)COc1c(O)cccc12`: the inhibition constant (Ki) at Mu-type opioid receptor is 1650 nM; in assay [1], more than 100000 nM.
Taken in the same sequence, the figures for `CC1CN(C)CCC12COc1c(O)cccc12` (racemic; form 2) were 1020 nM and 505 nM.
For `CC1Oc2c(O)cccc2C12CCN(C)CC2` (racemic), the values for the Ki (on Mu-type opioid receptor; in assay [1]) were 124 nM and more than 100000 nM, respectively.
Taken in the same sequence, the figures for `CC1CN(C)CCC12COc1c(O)cccc12` (racemic; form 1) were 54 nM and 177 nM.
In the same order, the values of `CCC1Oc2c(O)cccc2C12CCN(C)CC2` (racemic) are 102 nM and more than 100000 nM.
For `CCOC(=O)C1(c2ccccc2)CCN(C)CC1` [MEPERIDINE], the inhibition constant Ki in assay [1] is more than 100000 nM.
